The structures appear in SMILES notation.

The nature of the first data set: Test for solubility in water (deionized water, stirring 3 minutes, presence or absence of insoluble matter).
Settings: not given
The term solubility denotes the concentration that dissolves in the medium under given conditions. A higher solubility goes with a readily soluble substance. With `COC(=O)C1=C(C)NC(C)=C(C(=O)OCCC[n+]2ccn(C)c2)[C@H]1c1cccc([N+](=O)[O-])c1` [Example 6, 3-(1-methylimidazolium)propyl (4S)-1,4-dihydro-2,6-dimethyl-5-methoxycarbonyl-4-(3-nitrophenyl)-pyridine-3-carboxylate iodide], the solubility at 0.05 h is at least 1000 µg/mL. `COC(=O)C1=C(C)NC(C)=C(C(=O)OCCC[n+]2cccc(C(=O)OC)c2)[C@H]1c1cccc([N+](=O)[O-])c1` [Example 7, 3-(3-methoxycarbonylpyridinium)propyl (4S)-1,4-dihydro-2,6-dimethyl-5-methoxycarbonyl-4-(3-nitrophenyl)-pyridine-3-carboxylate iodide] returned a solubility at 0.05 h of at least 1000 µg/mL. Take `COC(=O)C1=C(C)NC(C)=C(C(=O)OCCC[n+]2cccc(C#N)c2)[C@H]1c1cccc([N+](=O)[O-])c1` [Example 8, 3-(3-cyanopyridinium)propyl (4S)-1,4-dihydro-2,6-dimethyl-5-methoxycarbonyl-4-(3-nitrophenyl)-pyridine-3-carboxylate iodide]: the solubility at 0.05 h is at least 1000 µg/mL.

With `COC(=O)C1=C(C)NC(C)=C(C(=O)OCCC[n+]2ccc(N(C)C)cc2)[C@H]1c1cccc([N+](=O)[O-])c1` [Example 9, 3-(4-dimethylaminopyridinium)propyl (4S)-1,4-dihydro-2,6-dimethyl-5-methoxycarbonyl-4-(3-nitrophenyl)-pyridine-3-carboxylate iodide], the solubility at 0.05 h is at least 1000 µg/mL.

With `COC(=O)C1=C(C)NC(C)=C(C(=O)OCCC[n+]2cccc(C(N)=O)c2)[C@H]1c1cccc([N+](=O)[O-])c1` [Example 10, 3-(3-carbamoylpyridinium)propyl (4S)-1,4-dihydro-2,6-dimethyl-5-methoxycarbonyl-4-(3-nitrophenyl)-pyridine-3-carboxylate iodide], the solubility at 0.05 h is at least 1000 µg/mL.

With `COC(=O)C1=C(C)NC(C)=C(C(=O)OCc2cccc[n+]2C)[C@H]1c1cccc([N+](=O)[O-])c1` [Example 11, 3-(1-methyl-2-pyridinium)methyl (4S)-1,4-dihydro-2,6-dimethyl-5-methoxycarbonyl-4-(3-nitrophenyl)-pyridine-3-carboxylate iodide], the solubility at 0.05 h was at least 1000 µg/mL. With `COC(=O)C1=C(C)NC(C)=C(C(=O)OCCCc2ccc[n+](C)c2)[C@H]1c1cccc([N+](=O)[O-])c1` [Example 12, 3-(1-methyl-3-pyridinium)propyl (4S)-1,4-dihydro-2,6-dimethyl-5-methoxycarbonyl-4-(3-nitrophenyl)-pyridine-3-carboxylate iodide], the solubility at 0.05 h is at least 1000 µg/mL.

The next data set is described as follows: physchem. Conditions: deionized water.
Experimental: The measurements were performed by mixing deionized water with a compound to be tested, subsequently stirring for 3 minutes using a electromagnetic vibrating stirrer, and determining a critical value (solubility) based on presence or absence of insoluble matter.
Consider `COC(=O)C1=C(C)NC(C)=C(C(=O)OCCC[n+]2ccccc2)[C@H]1c1cccc([N+](=O)[O-])c1` [Example 2, 3-pyridiniumpropyl (4S)-1,4-dihydro-2,6-dimethyl-5-methoxycarbonyl-4-(3-nitrophenyl)-pyridine-3-carboxylate iodide], for which the solubility at 0.05 h is at least 1000 µg/mL. The same measure, in the same setting: to `COC(=O)C1=C(C)NC(C)=C(C(=O)OCCC[n+]2ccncc2)[C@H]1c1cccc([N+](=O)[O-])c1` [Example 3, 3-pyraziniumpropyl (4S)-1,4-dihydro-2,6-dimethyl-5-methoxycarbonyl-4-(3-nitrophenyl)-pyridine-3-carboxylate iodide] belongs at least 1000 µg/mL. For the molecule `COC(=O)C1=C(C)NC(C)=C(C(=O)OCCC[n+]2ccsc2)[C@H]1c1cccc([N+](=O)[O-])c1` [Example 4, 3-thiazoliumpropyl (4S)-1,4-dihydro-2,6-dimethyl-5-methoxycarbonyl-4-(3-nitrophenyl)-pyridine-3-carboxylate iodide], the solubility at 0.05 h is at least 1000 µg/mL. For `COC(=O)C1=C(C)NC(C)=C(C(=O)OCCC[n+]2ccccn2)[C@H]1c1cccc([N+](=O)[O-])c1` [Example 5, 3-pyridaziniumpropyl (4S)-1,4-dihydro-2,6-dimethyl-5-methoxycarbonyl-4-(3-nitrophenyl)-pyridine-3-carboxylate iodide], the solubility at 0.05 h was at least 1000 µg/mL.
